The values below come from the supplement of paper PMC10307832.

Common to all, as to test: relative viability (nuclei count vs DMSO), 5 days (fraction); higher = more cells survive
Compound in assay [1]: C[C@@H](C(=O)N[C@@H](C1CCCCC1)C(=O)N2CCC[C@H]2C(=O)N[C@@H]3[C@@H](CC4=CC=CC=C34)OCC#CC#CCO[C@@H]5CC6=CC=CC=C6[C@@H]5NC(=O)[C@@H]7CCCN7C(=O)[C@H](C8CCCCC8)NC(=O)[C@H](C)NC)NC [AZD5582] + CC1(C)CCC(c2ccc(Cl)cc2)=C(CN2CCN(c3ccc(C(=O)NS(=O)(=O)c4ccc(N[C@H](CCN5CCOCC5)CSc5ccccc5)c(S(=O)(=O)C(F)(F)F)c4)cc3)CC2)C1 [Navitoclax] (partner 0.5 µM)
The gist of the method: (§1)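 For relative viability, nuclei counts in treated wells were divided by those in vehicle wells. Lung cancer cell lines had been pin-tool dosed in 1536-well plates the day after seeding and cultured for 5 days, then fixed and stained in one step (final 0.05% Triton X-100, 1% formaldehyde, 1 ug/ml Hoechst) and imaged at 4×. Doses were one drug alone or a fixed anchor-drug dose plus five library-drug doses (not always all listed) in √10 steps, and values are duplicate-plate medians.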

Compound in assay [2]: C[C@@H](C(=O)N[C@@H](C1CCCCC1)C(=O)N2CCC[C@H]2C(=O)N[C@@H]3[C@@H](CC4=CC=CC=C34)OCC#CC#CCO[C@@H]5CC6=CC=CC=C6[C@@H]5NC(=O)[C@@H]7CCCN7C(=O)[C@H](C8CCCCC8)NC(=O)[C@H](C)NC)NC [AZD5582] + COc1cc2c(Oc3ccc(NC(=O)C4(C(=O)Nc5ccc(F)cc5)CC4)cc3F)ccnc2cc1OCCCN1CCOCC1 [Foretinib] (partner 0.25 µM)
The procedure, abridged: as §1

Compound in assay [3]: C[C@@H](C(=O)N[C@@H](C1CCCCC1)C(=O)N2CCC[C@H]2C(=O)N[C@@H]3[C@@H](CC4=CC=CC=C34)OCC#CC#CCO[C@@H]5CC6=CC=CC=C6[C@@H]5NC(=O)[C@@H]7CCCN7C(=O)[C@H](C8CCCCC8)NC(=O)[C@H](C)NC)NC [AZD5582] + Cc1nc(NC(=O)N2CCC[C@H]2C(N)=O)sc1-c1ccnc(C(C)(C)C(F)(F)F)c1 [Alpelisib] (partner 2 µM)
The procedure, abridged:
as §1

Compound in assay [4]: C[C@@H](C(=O)N[C@@H](C1CCCCC1)C(=O)N2CCC[C@H]2C(=O)N[C@@H]3[C@@H](CC4=CC=CC=C34)OCC#CC#CCO[C@@H]5CC6=CC=CC=C6[C@@H]5NC(=O)[C@@H]7CCCN7C(=O)[C@H](C8CCCCC8)NC(=O)[C@H](C)NC)NC [AZD5582] + NC(=O)Nc1cc(-c2cccc(F)c2)sc1C(=O)N[C@H]1CCCNC1 [AZD7762] (partner 0.2 µM)
The settings on record: first compound 0.05 µM. The gist of the method:
as §1

Compound in assay [5]: C[C@@H](C(=O)N[C@@H](C1CCCCC1)C(=O)N2CCC[C@H]2C(=O)N[C@@H]3[C@@H](CC4=CC=CC=C34)OCC#CC#CCO[C@@H]5CC6=CC=CC=C6[C@@H]5NC(=O)[C@@H]7CCCN7C(=O)[C@H](C8CCCCC8)NC(=O)[C@H](C)NC)NC [AZD5582] + O=C(c1cc(Cc2n[nH]c(=O)c3ccccc23)ccc1F)N1CCN(C(=O)C2CC2)CC1 [Olaparib] (partner 8 µM)
The gist of the method: as §1

Compound in assay [6]: Cn1nnc2c(C(N)=O)ncn2c1=O [Temozolomide] + CS(=O)(=O)N1CCN(Cc2cc3nc(-c4cccc5[nH]ncc45)nc(N4CCOCC4)c3s2)CC1 [Pictilisib] (partner 1 µM)
The gist of the method: as §1

As to NCI-H1703, the relative viability in assay [1] (first compound 0.001581 µM) amounted to 0.874; in assay [1] (first compound 0.005 µM), 0.807; in assay [1] (first compound 0.01581 µM) it was 1.03; in assay [1] (first compound 0.05 µM), 0.557; in assay [2] (first compound 0.005 µM), 0.412; in assay [2] (first compound 0.01581 µM) it was 0.376. Also, the relative viability worked out at 0.372 in assay [2] (first compound 0.05 µM); 0.208 in assay [3] (first compound 0.001581 µM); 0.323 in assay [3] (first compound 0.005 µM); 0.358 in assay [3] (first compound 0.01581 µM); 0.255 in assay [3] (first compound 0.05 µM); 0.126 in assay [4]. Besides, the relative viability in assay [5] (first compound 0.005 µM) came out at 0.413; in assay [5] (first compound 0.01581 µM), 0.487; in assay [5] (first compound 0.05 µM), 0.54; in assay [6] (first compound 0.2 µM), 0.249; in assay [6] (first compound 0.6325 µM), 0.255; in assay [6] (first compound 2 µM) it was 0.301. The relative viability in assay [6] (first compound 20 µM) is 0.272.
